Values quoted from earlier work, collected in patent US20200368246A1, “COMBINATION THERAPY TARGETING CANCER ASSOCIATED WITH THE HEDGEHOG PATHWAY” (priority 2017, published 2020).
Read-outs that look alike come from different tables or passages of the source.

Experiments:
basal cell carcinoma = details: patient
[1] = nineteen patients; grade 2 fatigue and grade 4 congestive heart failure
[2] = for patients who experience treatment-emergent adverse events: monotherapy at recommended dose; for patients who experienced adverse side effects: muscle spasms, alopecia, taste loss, weight loss, fatigue
[3] = tested on: advanced and metastatic basal cell carcinoma; details: monotherapy
[4] = metastatic basal cell carcinoma

| Molecule | effectiveness (basal cell carcinoma; 3 cycles) | adverse events associated with treatment [1] | patients who experience treatment-emergent adverse events [2] | patients who had to discontinue treatment due to toxic effects ([2]; monotherapy trial) | patients who experienced adverse side effects ([2]; monotherapy trial) | mean time for secondary resistance [3] | treated patients with secondary resistance [3] | response rate ([3]; advanced basal cell carcinoma) | response rate [3, 4] | tumor shrinkage (basal cell carcinoma; clinical trial, within the first several months) | tumor outcome on second course (basal cell carcinoma; placed back on the drug after radiation) | patients with severe grade 3 or 4 adverse reactions ([2]; monotherapy trial) |
| --- | --- | --- | --- | --- | --- | --- | --- | --- | --- | --- | --- | --- |
| pembrolizumab [Keytruda] | failed to show effectiveness | – | – | – | – | – | – | – | – | – | – | – |
| CCC(C)n1ncn(-c2ccc(N3CCN(c4ccc(OCC5COC(Cn6cncn6)(c6ccc(Cl)cc6Cl)O5)cc4)CC3)cc2)c1=O (stereo not drawn) [itraconazole] | – | two adverse events | – | – | – | – | – | – | – | – | – | – |
| Cc1c(C(=O)Nc2ccc(N3C[C@@H](C)O[C@@H](C)C3)nc2)cccc1-c1ccc(OC(F)(F)F)cc1 [Odomzo®, sonidegib] | – | – | Ninety-five to one hundred percent | 22% | 32% | about 52 weeks | 21% | 47% | 17.4% | – | – | – |
| CS(=O)(=O)c1ccc(C(=O)Nc2ccc(Cl)c(-c3ccccn3)c2)c(Cl)c1 [Erivedge®, vismodegib] | – | – | Ninety-five to one hundred percent | – | 33% | about 52 weeks | 21% | 43% | 30% | 70% | the tumor developed resistance to the drug | 25% |
